US9820483B2, “Microbial composition” (Rohm and Haas Company, priority 2011, dated 2017)

Legend:
[1] = system: Escherichia coli (E. coli—ATCC #10536); test: Automated assessment of efficacy in model surfactant base (2.85% sodium cocoyl glycinate + 1.85% sodium lauroamphoacetate, pH 10), 15 seconds exposure, delta OD450/OD590 in D/E quench; assay type: cell-based
Method: Solutions were prepared such that the concentrations of the surfactant components and test actives were 1.1× the final desired concentration in order to allow for dilution with the bacterial inoculum in the test. The solutions were manually adjusted to pH 10.0 by dropwise addition of sodium hydroxide solution, as measured with a pH meter at ambient temperature.
Tests were conducted using standard microtiter plate assays using an automated liquid handling system. 270 μl of the surfactant test solution was pipetted into each well of the microtitre plate and 30 μl of the bacterial suspension was then added. After exactly 15 seconds of bacterial exposure, a 30 μl volume of bacterial cells was withdrawn and transferred to 270 μl of D/E quench solution. After 5 minutes in the D/E quench, the optical density (OD) was measured for each plate in turn at two specific wavelengths (450 nm and 590 nm). These provide a dual check of antimicrobial activity, as the OD450 reading is specific for the yellow colour of D/E quench when bacterial growth is observed, whereas OD590 is specific for the initial purple colour of the D/E quench which is retained if no bacterial growth is observed. After the time zero OD measurements, plates were then incubated at 37° C. overnight (16 hours) before repeating the OD measurements. Delta OD values were calculated by subtracting […]. Bacterial growth is observed as an increase in OD450 and a decrease in ΔOD590. To identify antibacterially efficacious systems (those preventing appreciable bacterial growth after incubation), the following threshold changes in OD readings have been adopted: if (1). OD450 increases by less than 0.2 absorbance unit on incubation and (2). OD590 decreases by less than 0.35 unit on incubation. Conversely, where OD450 increases by more than 0.2 AU and OD590 decreases by more than 0.35 unit after incubation, corresponding to a colour shift from purple to yellow, the test system allows bacterial growth and is not deemed efficacious. Four replicate measurements in the same plate have been made for each test system. The number of replicate wells showing either bacterial growth or no growth is also readily assessed by eye by following the colour change.
Dose responses for individual components and binary mixtures of actives at a fixed concentration ratio were generated by sequential dilution of liquors with further surfactant solution to obtain a series of endpoints.
In some selected cases, the combinations were also tested at the weight ratio 1:1.
The method used was the same as in the above Table.

[2] = system: Staphylococcus aureus (10788 strain); test: Antimicrobial efficacy of actives against S. aureus in water, 15 seconds contact, NMBS; assay type: cell-based
Method: Selected materials were also tested against a representative Gram positive Staphylococcus aureus.
The following assay describes the testing of 8 materials using 6 dilutions across half of a 96-well micro titre plate (MTP). Using this approach it is possible to assay 16 actives (without replicates) with one full dilution plate, replicating this set up in two halves of the plate columns, 1-6 and 7-12.
Bacterial stock (30 μl) was then added to the prepared 270 μl of the solution of actives in the Screening Plate and mixed, using a multichannel pipette with 8 tips to aspirate and dispense the same volume of bacterial stock in parallel to 8 wells in rows A-H. After a contact time of 15 seconds, the mixtures were quenched by transferring 30 μl volumes of the mixtures into the 270 μl D/E neutralising solution in the prepared dilution plate, using aspiration to mix. After exactly 5 minutes in the D/E neutralising solution, […] were transferred from column 1 to column 2 of the Dilution MTP and mixed, before transferring further 30 μl volumes from column 2 into column 3. This process was repeated serially diluting the bacteria across the plate to column 6.
30 μl volumes from each well in the Dilution MTP were transferred onto pre-labelled segment of Tryptone Soya Agar (TSA) plates starting from the lowest bacterial concentration (highest dilution, column 6) to the highest bacterial concentration (column 1). The TSA plates were allowed to stand for ca. 2 hours so that the 30 μl inocula spots could dry and the plates were then inverted and incubated overnight at 37° C. before enumerating the bacterial colonies at the labelled dilutions to determine the effects of the actives on bacterial growth.
Mean bacterial survival numbers NMBS (expressed in Log CFU/ml) are obtained by first determining the segment of the TSA plate where the number of bacterial colonies is countable. From the colony number in this segment. NMBS is calculated by the formula: NMBS=log {Ncol·10^DF·100/3} Here, Ncol is the colony count, and DF is the dilution factor taken from the MTP-well corresponding to the TSA plate segment (i.e. DF may range from 1 for the quench, to 6 for the highest dilution). The factor 100/3 is a conversion factor from the volume of the inocula spot to one milliliter.
Every assay test was performed in triplicate.
Thus, a value of NMBS as of about 7 corresponds to a count of about […] from the fifth dilution well, i.e. with DF=5. Such a count of about 7 is generally observed when bacteria are exposed to non-biocidal materials. In case no surviving colonies are observed in any segment of the TSA plate, this is interpreted as complete kill and a value of NMBS=0 is reported.
S. aureus Bacterial stock was prepared as shown below and the antibacterial efficacy of the active was carried out as explained earlier for E. Coli.
An overnight culture of Staphylococcus aureus (10788 strain) was inoculated onto a Tripticase Soy Agar (TSA) plate and grown for ca. 18 hrs at 37° C. The culture of S. aureus was washed from the plate using sterile saline (0.85% NaCl) solution and a sterile spreader and suspended in 50 ml saline. This suspension was separated into equal volumes and centrifuged at 4000 rpm for 15 minutes. Following centrifugation the pellet was re-suspended in saline to give a final concentration of 0.35 OD620 equivalent to about 10^8 cells per milliliter for this particular organism. Here. OD620 indicates the absorbance of a sample in a cuvette of 1.0 cm path length at a wavelength of 620 nm. This bacterial stock was used for assaying against antimicrobial actives (in triplicate).

[3] = system: S. aureus ATCC 6538; test: Synergy of terpinyl alcohols with phenolic compounds in water, 15 seconds contact, plate count log reduction; assay type: cell-based, Staphylococcus aureus; settings: […] alone
Method: Liquid actives were used directly. Solid actives were dissolved in alcohol and a 50% stock was made.
The culture was grown overnight in Tryptone soya agar. It was suspended in saline (0.85% NaCl) to a con. of 1.5×10^8-5×10^8 cells/ml
To 9 ml water the actives were added to give the desired concentration. 1 ml of the culture was added and mixed. After 15 seconds contact 1 ml aliquot was removed and added to a neutraliser and kept for 5 minutes. A control of untreated cells was similarly processed. It was then diluted and plated. The plates were incubated at 37° C. for 24 hours. The colonies on the plates were counted. The counts were converted to log10. The log. no. of survivors was determined and log reduction calculated.

## C=C(C)C1CCC(C)C(O)C1 (stereo not shown) [2-methyl-5-(prop-1-en-2-yl)cyclohexanol]
[1]; Escherichia coli, ATCC10536, 15 s, in 2.85% sodium cocoyl glycinate + 1.85% sodium lauroamphoacetate solution at pH 10, E. coli, read-out: MBC
  MBC: 4000 µg/mL
[1]; single active at 0.3% w/v
  No. of replicates showing growth (out of 4): 4
  Δ OD 590 nm = OD590 (time = 16 hours) − OD590 (time zero), Mean: 0.66
  ΔOD 450 nm = OD450 (time = 16 hours) − OD450 (time zero), Mean: −0.44
[1]; single active at 0.5% w/v
  No. of replicates showing growth (out of 4): 0
  Δ OD 590 nm = OD590 (time = 16 hours) − OD590 (time zero), Mean: 0.20
  ΔOD 450 nm = OD450 (time = 16 hours) − OD450 (time zero), Mean: 0.23
[1]; single active at […] w/v
  No. of replicates showing growth (out of 4): 4
  Δ OD 590 nm = OD590 (time = 16 hours) − OD590 (time zero), Mean: 0.63
  ΔOD 450 nm = OD450 (time = 16 hours) − OD450 (time zero), Mean: −0.50
[2]; 0.5% w/v alone, S. aureus, 15 s
  NMBS: 7.34 log CFU/ml
[2]; component alone, against S. aureus, in water
  MBC: >1.5 % w/v
[3]
  Log reduction S. aureus ATCC 6538: −0.15
